Results published in US8580918B2, “Peptidic GLP-2 agonists” (Ferring B.V., priority 2009, dated 2013).
Where a SMILES comes first, the peptide text is derived from it. [ ]: non-standard residue; d: D form. The star is where a group is joined. 1Nal = N[C@@H](Cc1cccc2ccccc12)C(=O)O; Nle = CCCC[C@H](N)C(=O)O; NHIsopentyl = CC(C)CCN*

Assay: Pharmacokinetics in rats after intravenous bolus injection (systemic clearance)
Assay type: in vivo
Settings: rat, plasma, 0.2 mg FB/kg, adult male Sprague-Dawley rats, i.v. bolus, dose 0.20 mg FB/kg, read-out: CL (ml/kg/min) Average
Procedure: Pharmacokinetic (PK) parameters of illustrative agonists of the GLP-2 receptor were determined in adult male Sprague-Dawley rats post intravenous bolus injection of compounds at doses of 0.1-1.0 mg/kg. Three or four doubly cannulated animals per compound were dosed via jugular vein, blood samples were collected at several intervals via carotid artery, and plasma samples were prepared from whole blood using K2EDTA as anticoagulant. Subsequent bioanalysis of samples included compound extraction and plasma concentration determination using standard LC/MS/MS methods. Analyte concentration was calculated from internal standard normalized peak area and calibration curves.
For calculation of PK parameters the compound concentration-time curves were analyzed with the noncompartmental data analysis software package PK Solutions 2.0™ (Summit Research Services, Montrose Colo.). The systemic clearance per kg body weight (CL) was calculated as the dose per kg body weight divided by the AUC extrapolated to infinity based on trapezoid calculation (AUC∞). Values reported are the arithmetic mean and standard deviation from the number of animals used for each compound as indicated on Table 3.

clearance	Compound
7.1 mL/kg/min	CCCC[C@H](NC(=O)[C@H](CCC(=O)O)NC(=O)[C@H](CC(=O)O)NC(=O)[C@H](CO)NC(=O)[C@H](Cc1ccccc1)NC(=O)[C@H](CO)NC(=O)[C@@H](C)NC(=O)[C@H](CC(=O)O)NC(=O)CNC(=O)[C@@H](N)Cc1cnc[nH]1)C(=O)N[C@@H](CC(N)=O)C(=O)N[C@H](C(=O)N[C@H](C(=O)N[C@@H](CC(C)C)C(=O)N[C@@H](CC(=O)O)C(=O)N[C@@H](CC(N)=O)C(=O)N[C@@H](CC(C)C)C(=O)N[C@@H](C)C(=O)N[C@@H](C)C(=O)N[C@@H](CCCNC(=N)N)C(=O)N[C@@H](CC(=O)O)C(=O)N[C@@H](Cc1ccccc1)C(=O)N[C@H](C(=O)N[C@@H](CC(N)=O)C(=O)N[C@@H](Cc1c[nH]c2ccccc12)C(=O)N[C@@H](CC(C)C)C(=O)N[C@H](C(=O)N[C@@H](CCC(N)=O)C(=O)N[C@H](C(=O)N[C@@H](CCCCN)C(N)=O)[C@@H](C)O)[C@@H](C)CC)[C@@H](C)CC)[C@@H](C)CC)[C@@H](C)O [Compound 1, [Gly2,D-Ala4,Nle10] hGLP-2 (1-30)-NH2] (H-HGD[dA]SFSDE[Nle]NTILDNLAARDFINWLIQTK-NH2)
1.2 mL/kg/min	CCCC[C@H](NC(=O)[C@H](CCC(=O)O)NC(=O)[C@H](CC(=O)O)NC(=O)[C@H](CO)NC(=O)[C@H](Cc1ccccc1)NC(=O)[C@H](CO)NC(=O)CNC(=O)[C@H](CC(=O)O)NC(=O)CNC(=O)[C@@H](N)Cc1c[nH]cn1)C(=O)N[C@@H](CC(N)=O)C(=O)N[C@H](C(=O)N[C@H](C(=O)N[C@@H](CC(C)C)C(=O)N[C@@H](CC(=O)O)C(=O)N[C@@H](CC(N)=O)C(=O)N[C@@H](CC(C)C)C(=O)N[C@@H](C)C(=O)N[C@@H](C)C(=O)N[C@@H](CCCNC(=N)N)C(=O)N[C@@H](CC(=O)O)C(=O)N[C@@H](Cc1ccccc1)C(=O)N[C@H](C(=O)N[C@@H](CC(N)=O)C(=O)N[C@@H](Cc1c[nH]c2ccccc12)C(=O)N[C@@H](CC(C)C)C(=O)N[C@H](C(=O)N[C@@H](CCC(N)=O)C(=O)N[C@H](C(=O)N[C@@H](CCCCN)C(=O)NCCC(C)C)[C@@H](C)O)[C@@H](C)CC)[C@@H](C)CC)[C@@H](C)CC)[C@@H](C)O [Compound 5, [Gly2,Nle10] hGLP-2 (1-30)-NH-i-Am] (H-HGDGSFSDE[Nle]NTILDNLAARDFINWLIQTK-NHIsopentyl)
6.3 mL/kg/min	CCCC[C@H](NC(=O)[C@H](CCC(=O)O)NC(=O)[C@H](CC(=O)O)NC(=O)[C@H](CO)NC(=O)[C@H](Cc1ccccc1)NC(=O)[C@H](CO)NC(=O)CNC(=O)[C@H](CC(=O)O)NC(=O)CNC(=O)[C@@H](N)Cc1c[nH]cn1)C(=O)N[C@@H](CC(N)=O)C(=O)N[C@H](C(=O)N[C@H](C(=O)N[C@@H](CC(C)C)C(=O)N[C@@H](CC(=O)O)C(=O)N[C@@H](CC(N)=O)C(=O)N[C@@H](CC(C)C)C(=O)N[C@@H](C)C(=O)N[C@@H](C)C(=O)N[C@@H](CCCNC(=N)N)C(=O)N[C@@H](CC(=O)O)C(=O)N[C@@H](Cc1ccccc1)C(=O)N[C@H](C(=O)N[C@@H](CC(N)=O)C(=O)N[C@@H](Cc1c[nH]c2ccccc12)C(=O)N[C@@H](CC(C)C)C(=O)N[C@H](C(=O)N[C@@H](CCC(N)=O)C(=O)N[C@H](C(=O)N[C@@H](CCCCN)C(=O)NCC)[C@@H](C)O)[C@@H](C)CC)[C@@H](C)CC)[C@@H](C)CC)[C@@H](C)O [Compound 6, [Gly2,Nle10] hGLP-2 (1-30)-NH—Et] (H-HGDGSFSDE[Nle]NTILDNLAARDFINWLIQTK-NHEt)
0.84 mL/kg/min	CCCC[C@H](NC(=O)[C@H](CCC(=O)O)NC(=O)[C@H](CC(=O)O)NC(=O)[C@H](CO)NC(=O)[C@H](Cc1ccccc1)NC(=O)[C@H](CO)NC(=O)CNC(=O)[C@H](CC(=O)O)NC(=O)CNC(=O)[C@@H](N)Cc1c[nH]cn1)C(=O)N[C@@H](CC(N)=O)C(=O)N[C@H](C(=O)N[C@H](C(=O)N[C@@H](CC(C)C)C(=O)N[C@@H](CC(=O)O)C(=O)N[C@@H](CC(C)C)C(=O)N[C@@H](CC(C)C)C(=O)N[C@@H](C)C(=O)N[C@@H](C)C(=O)N[C@@H](CCCNC(=N)N)C(=O)N[C@@H](CC(=O)O)C(=O)N[C@@H](Cc1ccccc1)C(=O)N[C@H](C(=O)N[C@@H](CC(N)=O)C(=O)N[C@@H](Cc1c[nH]c2ccccc12)C(=O)N[C@@H](CC(C)C)C(=O)N[C@H](C(=O)N[C@@H](CCC(N)=O)C(=O)N[C@H](C(=O)N[C@@H](CCCCN)C(N)=O)[C@@H](C)O)[C@@H](C)CC)[C@@H](C)CC)[C@@H](C)CC)[C@@H](C)O [Compound 11, [Gly2,Nle10,Leu16] hGLP-2 (1-30)-NH2] (H-HGDGSFSDE[Nle]NTILDLLAARDFINWLIQTK-NH2)
1.2 mL/kg/min	CCCC[C@H](NC(=O)[C@H](CCC(=O)O)NC(=O)[C@H](CC(=O)O)NC(=O)[C@H](CO)NC(=O)[C@H](Cc1ccccc1)NC(=O)[C@H](CO)NC(=O)CNC(=O)[C@H](CC(=O)O)NC(=O)CNC(=O)[C@@H](N)Cc1cnc[nH]1)C(=O)N[C@H](Cc1ccccc1)C(=O)N[C@H](C(=O)N[C@H](C(=O)N[C@@H](CC(C)C)C(=O)N[C@@H](CC(=O)O)C(=O)N[C@@H](CC(N)=O)C(=O)N[C@@H](CC(C)C)C(=O)N[C@@H](C)C(=O)N[C@@H](C)C(=O)N[C@@H](CCCNC(=N)N)C(=O)N[C@@H](CC(=O)O)C(=O)N[C@@H](Cc1ccccc1)C(=O)N[C@H](C(=O)N[C@@H](CC(N)=O)C(=O)N[C@@H](Cc1c[nH]c2ccccc12)C(=O)N[C@@H](CC(C)C)C(=O)N[C@H](C(=O)N[C@@H](CCC(N)=O)C(=O)N[C@H](C(=O)N[C@@H](CCCCN)C(N)=O)[C@@H](C)O)[C@@H](C)CC)[C@@H](C)CC)[C@@H](C)CC)[C@@H](C)O [Compound 13, [Gly2,Nle10,D-Phe11] hGLP-2 (1-30)-NH2] (H-HGDGSFSDE[Nle][dF]TILDNLAARDFINWLIQTK-NH2)
0.43 mL/kg/min	CCCC[C@H](NC(=O)[C@H](CCC(=O)O)NC(=O)[C@H](CC(=O)O)NC(=O)[C@H](CO)NC(=O)[C@H](Cc1ccccc1)NC(=O)[C@H](CO)NC(=O)CNC(=O)[C@H](CC(=O)O)NC(=O)CNC(=O)[C@@H](N)Cc1cnc[nH]1)C(=O)N[C@@H](CC(N)=O)C(=O)N[C@H](C(=O)N[C@H](C(=O)N[C@@H](CC(C)C)C(=O)N[C@@H](CC(=O)O)C(=O)N[C@@H](Cc1cccc2ccccc12)C(=O)N[C@@H](CC(C)C)C(=O)N[C@@H](C)C(=O)N[C@@H](C)C(=O)N[C@@H](CCCNC(=N)N)C(=O)N[C@@H](CC(=O)O)C(=O)N[C@@H](Cc1ccccc1)C(=O)N[C@H](C(=O)N[C@@H](CC(N)=O)C(=O)N[C@@H](Cc1c[nH]c2ccccc12)C(=O)N[C@@H](CC(C)C)C(=O)N[C@H](C(=O)N[C@@H](CCC(N)=O)C(=O)N[C@H](C(=O)N[C@@H](CCCCN)C(N)=O)[C@@H](C)O)[C@@H](C)CC)[C@@H](C)CC)[C@@H](C)CC)[C@@H](C)O [Compound 17, [Gly2,Nle10,1-Nal16] hGLP-2 (1-30)-NH2] (H-HGDGSFSDE[Nle]NTILD[1Nal]LAARDFINWLIQTK-NH2)
1.2 mL/kg/min	CCCC[C@H](NC(=O)[C@H](CCC(=O)O)NC(=O)[C@H](CC(=O)O)NC(=O)[C@H](CO)NC(=O)[C@H](Cc1ccccc1)NC(=O)[C@H](CO)NC(=O)CNC(=O)[C@H](CC(=O)O)NC(=O)CNC(=O)[C@@H](N)Cc1c[nH]cn1)C(=O)N[C@@H](CC(N)=O)C(=O)N[C@H](C(=O)N[C@H](C(=O)N[C@@H](CC(C)C)C(=O)N[C@@H](CC(=O)O)C(=O)N[C@@H](Cc1ccc(O)cc1)C(=O)N[C@@H](CC(C)C)C(=O)N[C@@H](C)C(=O)N[C@@H](C)C(=O)N[C@@H](CCCNC(=N)N)C(=O)N[C@@H](CC(=O)O)C(=O)N[C@@H](Cc1ccccc1)C(=O)N[C@H](C(=O)N[C@@H](CC(N)=O)C(=O)N[C@@H](Cc1c[nH]c2ccccc12)C(=O)N[C@@H](CC(C)C)C(=O)N[C@H](C(=O)N[C@@H](CCC(N)=O)C(=O)N[C@H](C(=O)N[C@@H](CCCCN)C(N)=O)[C@@H](C)O)[C@@H](C)CC)[C@@H](C)CC)[C@@H](C)CC)[C@@H](C)O [Compound 18, [Gly2,Nle10,Tyr16] hGLP-2 (1-30)-NH2] (H-HGDGSFSDE[Nle]NTILDYLAARDFINWLIQTK-NH2)

Same assay, conditions: rat, plasma, adult male Sprague-Dawley rats, i.v. bolus, dose 0.18 mg FB/kg, read-out: CL (ml/kg/min) Average

clearance	Compound
1.5 mL/kg/min	CCCC[C@H](NC(=O)[C@H](CCC(=O)O)NC(=O)[C@H](CC(=O)O)NC(=O)[C@H](CO)NC(=O)[C@H](Cc1ccccc1)NC(=O)[C@H](CO)NC(=O)CNC(=O)[C@H](CC(=O)O)NC(=O)CNC(=O)[C@@H](N)Cc1c[nH]cn1)C(=O)N[C@@H](CC(N)=O)C(=O)N[C@H](C(=O)N[C@H](C(=O)N[C@@H](CC(C)C)C(=O)N[C@@H](CC(=O)O)C(=O)N[C@@H](CC(N)=O)C(=O)N[C@@H](CC(C)C)C(=O)N[C@@H](C)C(=O)N[C@@H](C)C(=O)N[C@@H](CCCNC(=N)N)C(=O)N[C@@H](CC(=O)O)C(=O)N[C@@H](Cc1ccccc1)C(=O)N[C@H](C(=O)N[C@@H](CC(N)=O)C(=O)N[C@@H](Cc1c[nH]c2ccccc12)C(=O)N[C@@H](CC(C)C)C(=O)N[C@H](C(=O)N[C@@H](CCCNC(=N)N)C(=O)N[C@H](C(=O)N[C@@H](CCCCN)C(=O)NCCC(C)C)[C@@H](C)O)[C@@H](C)CC)[C@@H](C)CC)[C@@H](C)CC)[C@@H](C)O [Compound 10, [Gly2,Nle10,Arg28] hGLP-2 (1-30)-NH-i-Am] (H-HGDGSFSDE[Nle]NTILDNLAARDFINWLIRTK-NHIsopentyl)
